# Data: US20260151384A1, “ISOQUINOLINE DERIVATIVES AS PROTEIN DEGRADERS, E7 DEGRADERS, ANTIVIRALS, TUMOR THERAPEUTICS AND IMMUNE SUPPRESSIVES” (priority 2022, published 2026)
# Where “and” joins values, the source holds several entries; their conditions need not be identical. Equal values may be shown once.
# How the values were obtained:
# SARS-CoV-2 = test: microbe, parasite or virus in culture; assay type: cell-based; settings: for % Inhibition of SARV-CoV-2 virus activity: 1.25 μM, n4
# HPV16 E7 protein = HPV16 E7 protein (Human papillomavirus type 16, UniProt P03129); assay type: cell-based; settings: for % Dad: adjusted degradation, CHX steady state set to 100%, Table 2 screen
# Chain of HPV16 E7 protein (P03129 whole entry): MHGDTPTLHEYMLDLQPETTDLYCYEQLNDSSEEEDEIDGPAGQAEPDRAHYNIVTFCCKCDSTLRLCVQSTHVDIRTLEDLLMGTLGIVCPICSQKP
# CaSki cells [1] = test: Monolayer assay using Sulphorhodamine B (SRB) staining, CaSki; assay type: cell-based, human
# CaSki cells [2] = test: Cell cycle analysis using Propidium-Iodide staining (flow cytometry); assay type: cell-based, human; settings: 48 hour incubation
# Protocol: Propidium-Iodide (PI) DNA staining is performed to facilitate cell cycle analysis. For PI-DNA staining, fixed cells and eventually antibody-stained cells are resuspended in 450 μl of PBS (per 10^6 cells) and incubated with 100 μg/ml RNase (stock 1 mg/ml, in PBS) for 10 minutes at 37° C. Cells are then incubated with 5 μg/106 cells of PI (stock 1 mg/ml in PBS) for 10 minutes at room temperature. Samples are stored at 4° C. until CF analysis.
# CaSki cells were incubated with various compounds and cell cycle distribution of the cells was assessed using Propidium-Iodide staining.
# In order to analyze the cytostatic versus the cytotoxic effect of OC compounds, cell cycle profiles were analyzed in vitro after 48 hour incubations using Flow Cytometry as a read out. For this a cell cycle analysis from selected OC E7 degrader compounds was conducted in CaSki cells. Using 6 well plates, 1.5×10^5 cells were seeded for each well and grown over night at 37° C. 5% CO2. For analysis of the cell cycle behavior, cells were analyzed in the presence of propidium Iodide (PI^−) by flow cytometry (FC). Briefly, cells were detached by trypsin digestion, all supernatants were included in the analysis, and fixed with 70% ice cold ethanol and stored at 4° C. until FC analysis using P1^− staining (1 mg/ml). At least 7000 events were acquired for each sample.
# [3] = tested on: human cervical carcinoma (CaSki) xenograft; test: Antitumor efficacy on CaSki human cervical carcinoma xenograft model; assay type: in vivo, nude mice; settings: for % TGI (Day 44), percentage tumor growth inhibition with respect to controls: OC246/OC974 2 mg/kg os
# Protocol: The aim of this study was to assess the in vivo efficacy of OC246 and OC974 on a human cervical carcinoma (CaSki) xenograft model in nude mice. OC246 and OC974 were administered oral once daily for four times with three days off, for three cycles at 2 mg/kg/dose. Cisplatin (CDDP) was used as a reference compound with three weekly intravenous (q7dx3) administrations of 6 mg/kg.
smiles,measurement,setting,value
CS(=O)(=O)O.Cc1c(O)cccc1C(=O)N[C@@H](CSc1ccccc1)[C@H](O)CN1C[C@H]2CCCC[C@H]2C[C@H]1C(=O)NC(C)(C)C [Neifinavir-Mesylat],% Inhibition of SARV-CoV-2 virus activity,SARS-CoV-2,9.49%
CCC(=O)N1CCN(c2ccc(-n3c(=O)ccc4cnc5ccc(-c6cnc7ccccc7c6)cc5c43)cc2C(F)(F)F)CC1 [Torin1],% Inhibition of SARV-CoV-2 virus activity,SARS-CoV-2,7.00%
"C[C@@H]1C[C@@H]([C@H](O)CC2CC(=O)NC(=O)C2)C(=O)[C@@H](C)C1 [CHX, Cycloheximide, reference compound]",% Dab,"HPV16 E7 protein; CaSki cells, 10 μM, four hours, CHX set to 100%",100%
same,Measured MFI (mean fluorescence intensity) of E7 signal,"HPV16 E7 protein; CaSki cells, 10 μM, four hours, vehicle T 8.06",1.71
COc1ccc2cc1Oc1ccc(cc1)C[C@H]1c3c(cc4c(c3Oc3cc5c(cc3OC)CCN(C)[C@@H]5C2)OCO4)CCN1C [Cepharantin],% Inhibition of SARV-CoV-2 virus activity,SARS-CoV-2,2.32%
"COc1ccc2c(c1)C(=O)N(CC1CCN(C)CC1)[C@@H](c1ccc(C(F)(F)F)cc1)[C@@H]2C(=O)Nc1cccc(N2CCN(C)CC2)c1 (relative stereo) [VS977, rel-(3R,4R)-7-methoxy-N-(3-(4-methylpiperazin-1-yl)phenyl)-2-((1-methylpiperidin-4-yl)methyl)-1-oxo-3-(4-(trifluoromethyl)phenyl)-1,2,3,4-tetrahydroisoquinoline-4-carboxamide]","SRB anti-neoplastic effect compared among VS035, VS977, VS978, OC969","CaSki cells [1]; CaSki, Test 21, FIG. 12",strongest effect
Cc1ccc(CN2C(=O)c3ccccc3C(C(=O)NCc3ccc(C(C)C)cc3)C2c2ccc(Cl)cc2)cc1 (stereo not drawn) [OC254],% Dad,HPV16 E7 protein,16%
Cc1ccc(CN2C(=O)c3ccccc3C(C(=O)NCc3ccc(Cl)cc3)C2c2ccc(Cl)cc2)cc1 (stereo not drawn) [OC253],% Dad,HPV16 E7 protein,0%
"CN1CCC(CN2C(=O)c3ccccc3[C@@H](C(=O)Nc3cccc(N4CCN(C)CC4)c3)[C@@H]2c2ccc(C(F)(F)F)cc2)CC1 (relative stereo) [OC974, rel-(3R,4R)-N-(3-(4-methylpiperazin-1-yl)phenyl)-2-((1-methylpiperidin-4-yl)methyl)-1-oxo-3-(4-(trifluoromethyl)phenyl)-1,2,3,4-tetrahydroisoquinoline-4-carboxamide]",EC50,"CaSki cells [1]; Homo sapiens, Ca-Ski, read-out: EC50 mean [nM]",1550 nM
same,G1/5 μM,"CaSki cells [2]; 5 μM, % cells in G1, no treatment 53.3",49.6%
same,G2/5 μM,"CaSki cells [2]; 5 μM, % cells in G2, no treatment 15.6",9.9%
same,A*/5 μM (Apoptosis as measured from total SUB G1 content),"CaSki cells [2]; 5 μM, no treatment 15.0",19.5%
same,G1/10 μM,"CaSki cells [2]; 10 μM, % cells in G1, no treatment 53.3",8.7%
same,G2/10 μM,"CaSki cells [2]; 10 μM, % cells in G2, no treatment 15.6",0.8%
same,A*/10 μM (Apoptosis as measured from total SUB G1 content),"CaSki cells [2]; 10 μM, no treatment 15.0",82.9% and 81.8%
same,inhibition at 1.25 µM,"SARS-CoV-2; Severe acute respiratory syndrome coronavirus 2, n4, read-out: % Inhibition of SARV-CoV-2 virus activity",54.3%
same,Tumor Volume Day 44 (mm^3 ± SD),"[3]; OC246/OC974 2 mg/kg os daily 4 x week 3 cycles, CDDP 6 mg/kg i.v. q7dx3, n = 7, control 1099 ± 503",307 ± 171 mm^3
same,"% TGI (Day 44), percentage tumor growth inhibition with respect to controls",[3]; CDDP 6 mg/kg i.v. q7dx3,63.9%
same,Δ% Body Weight,"[3]; between first day of treatment (day 20) and Day 44, control +4.9",+1.1%
same,Δ% on Day 44,"[3]; same schedules, control 100",23%
CCNC(=O)N1CCN(C(=O)C2c3ccccc3C(=O)N(Cc3ccc(C)cc3)C2c2ccc(Cl)cc2)CC1 (stereo not drawn) [OC257],% Dad,HPV16 E7 protein,12%
Nc1ccc(-c2ccc3ncc4ccc(=O)n(-c5cccc(C(F)(F)F)c5)c4c3c2)cn1 [Torin2],% Inhibition of SARV-CoV-2 virus activity,SARS-CoV-2,1.46%
"[NH2][Pt]([NH2])([Cl])[Cl] [CDDP, Cisplatin, reference compound]","% TGI (Day 44), percentage tumor growth inhibition with respect to controls",[3]; CDDP 6 mg/kg i.v. q7dx3,79.2%
c1c2c(cc3c1OCO3)-c1cc3ccc4c(c3c[n+]1CC2)OCO4 [Coptisin],% Inhibition of SARV-CoV-2 virus activity,SARS-CoV-2,98.97%
